{
  "source": "paper PMC11796312",
  "about": "“Multifunctional, Fluorene‐Based Modulator of Cholinergic and GABAergic Neurotransmission as a Novel Drug Candidate for Palliative Treatment of Alzheimer's Disease” (Angewandte Chemie (International Ed. in English), 2024)",
  "key": {"[1]": {"target": "T1, human butyrylcholinesterase (hBuChE) (Homo sapiens, UniProt P06276)", "T1 construct": "from human plasma was from Vivonics (Bedford, MA, USA); purchased Vivonics (Bedford, MA, USA); host or cells: human plasma", "T1 sequence (P06276 29-602)": "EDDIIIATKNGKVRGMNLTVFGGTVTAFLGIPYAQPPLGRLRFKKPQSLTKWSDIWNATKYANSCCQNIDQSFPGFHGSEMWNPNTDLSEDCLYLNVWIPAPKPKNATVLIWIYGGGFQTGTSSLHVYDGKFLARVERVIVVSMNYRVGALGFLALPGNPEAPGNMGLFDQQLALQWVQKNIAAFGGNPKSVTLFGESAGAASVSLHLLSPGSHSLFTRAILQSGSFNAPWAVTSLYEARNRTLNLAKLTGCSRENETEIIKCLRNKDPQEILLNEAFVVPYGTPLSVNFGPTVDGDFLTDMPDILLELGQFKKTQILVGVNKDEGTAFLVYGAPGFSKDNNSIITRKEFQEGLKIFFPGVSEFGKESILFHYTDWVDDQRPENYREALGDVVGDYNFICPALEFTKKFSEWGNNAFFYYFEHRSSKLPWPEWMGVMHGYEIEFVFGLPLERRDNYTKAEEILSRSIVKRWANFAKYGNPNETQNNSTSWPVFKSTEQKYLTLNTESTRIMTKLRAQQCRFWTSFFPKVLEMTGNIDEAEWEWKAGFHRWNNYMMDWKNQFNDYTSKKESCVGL", "assay": "biochemical", "settings": "means±SEM of at least three experiments"}, "[2]": {"target": "mGAT1 (Mus musculus, UniProt P31648)", "assay": "MS Binding Assay with NO 711 as marker"}, "[3]": {"target": "T2, human serotonin 5-HT1A receptor (Homo sapiens, UniProt P08908)", "T2 construct": "host or cells: CHO-K1", "T2 sequence (P08908 whole entry)": "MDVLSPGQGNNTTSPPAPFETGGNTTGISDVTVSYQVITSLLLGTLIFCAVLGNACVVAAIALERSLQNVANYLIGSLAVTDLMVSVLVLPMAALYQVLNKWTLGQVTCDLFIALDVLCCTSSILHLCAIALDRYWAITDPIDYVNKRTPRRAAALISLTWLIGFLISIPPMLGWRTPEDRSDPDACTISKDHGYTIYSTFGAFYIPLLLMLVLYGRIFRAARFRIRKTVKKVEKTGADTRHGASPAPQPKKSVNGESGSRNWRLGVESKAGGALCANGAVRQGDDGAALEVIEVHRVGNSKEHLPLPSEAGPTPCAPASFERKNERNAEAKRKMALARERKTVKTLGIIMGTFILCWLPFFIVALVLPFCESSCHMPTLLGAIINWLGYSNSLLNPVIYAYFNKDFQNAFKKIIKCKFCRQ", "assay": "cAMP 5-HT1A functional assay", "assay_type": "cell-based", "description": "Functional assays for 5-HT1A receptor\nTested and reference compounds were dissolved in DMSO to the concentration of 10 mM.\nDilutions were prepared in a 96-well microplate in assay buffers. For 5-HT1A receptors,\nadenylyl cyclase activity was determined using cryopreserved CHO-K1 cells expressing the\nThe final concentration of DMSO in the test solutions was\nThe functional assay was performed with the CHO-K1 cells with expression of the 5-HT1A\nThe cells were cultured under selective conditions (400 μg/mL Geneticin G418)\n(PerkinElmer). Thawed cells were resuspended in stimulation buffer (HBSS, 5 mM HEPES,\nThe same volume (10 μL) of cell\nsuspension was added to tested compounds with 10 μM forskolin. Samples were loaded onto\na white opaque half-area 96-well microplate. Cell stimulation was performed for 40 min at\nroom temperature. After incubation, cAMP measurements were performed with homogeneous\ntime-resolved fluorescence resonance energy transfer (TR-FRET) immunoassay using the\nLANCE Ultra cAMP kit (PerkinElmer, USA). Ten microliters of EucAMP Tracer Working\nSolution and 10 μL of ULight-anti-cAMP Tracer Working Solution were added, mixed, and\nincubated for 1 h. The TR-FRET signal was read on an EnVision microplate reader\n(PerkinElmer, USA). Emax values were defined as the ligand response expressed as a […]\nwhich 50% of its maximal response was measured."}, "[4]": {"test_system": "SIM-A9 cells", "assay": "Intracellular O2•-, DHE probe, SIM-A9", "assay_type": "cell-based, mouse"}, "[5]": {"test_system": "mice", "assay": "Elevated plus maze (EPM)", "assay_type": "in vivo", "settings": "vs control", "procedure": "Animals and housing conditions\nIn all pharmacodynamic in vivo experiments, except for the Barnes maze (BM) task, adult male Albino Swiss (CD-1) mice weighing between 18 and 22 g and purchased from the Animal Breeding Farm of the Faculty of Pharmacy, Jagiellonian University Medical College were used. In BM task, C57BL/6J mice of the same weight (Animalab, Poland) were used.\nAnimals were housed in cages (10 mice per cage) at a constant temperature of 22 ± 2 °C, humidity of 55 ± 10%, and a light/dark (12:12) cycle (lights on at 7 AM). Before the experiments, the animals had unlimited access to food and water. Specified conditions for the maintenance of mice were ensured throughout the experiments, including tree bedding (Transwior, Poland) and cage enrichment (tunnels, nesting material, wooden igloos, etc.). For the behavioral test, the mice were selected randomly; each group consisted of 7-12 mice. The experiments were performed between 9 AM and 3 PM. After in vivo tests, the animals were […]\nEthical approval statement\nThe procedures for the maintenance and treatment of laboratory animals were approved by the 1st Local Ethics Committee of the Jagiellonian University in Krakow (Approvals No. […]\n(§1) of the closed arms. […] The following parameters were measured in this test: time spent in open arms of the EPM device and the number of entries to open arms. […]"}, "[6]": {"test_system": "mice", "assay": "Locomotor activity test", "assay_type": "in vivo", "settings": "10 and 30 mg/kg i.p.", "procedure": "Effect on depressive-like behavior - forced swim test\nThe experiment was carried out according to Porsolt et al.[48] with small modifications.\nBriefly, mice were individually placed in a glass cylinder (25 cm high, 10 cm in diameter) containing 11 cm of water maintained at 23–25 °C and were left therein for 6 min. A mouse was regarded as immobile when it remained floating on the water, making only small movements to keep its head above it. The total duration of immobility was measured during the final 4 min of a 6-min test session.\nEffect on anxiety - four-plate test\nThe four-plate apparatus (FPT; Bioseb, France) consists of a cage (25 × 18 × 16 cm) that is floored with four rectangular metal plates (11 × 8 cm). The plates are separated from one another by a 4 mm gap, and they are connected to an electroshock generator. […] The number of punished crossings was counted […]\nas §1\ncrossings) were counted during the next 60 min of the test. […]\nFor the analysis of data obtained in the in vivo tests GraphPad Prism software (v. 9.0, CA, USA) was used. Numerical results from the tests were expressed as mean ± standard error of the mean (SEM). […]\nIn this fear-motivated task the effect of 6 on scopolamine-induced cognitive dysfunction was assessed. […]"}, "[7]": {"test_system": "BuChE", "settings": "1 or 5 µM compound (printed '1 or 5 M'), vs DMSO"}},
  "note": "Entries after “also recorded” stand apart in the source; their conditions may differ. Read-outs that look alike come from different tables or passages of the source.",
  "data": [
    {"smiles": "O[C@H](CNCC1CC1)[C@H](Cc1ccccc1)NC1c2ccccc2-c2ccccc21", "note": "[Compound 6]", "values": [
      {"measurement": "IC50", "setting": "[1]", "result": "0.21 ± 0.01", "unit": "µM"},
      {"measurement": "Ki", "setting": "[2]", "result": 37.2, "unit": "µM"},
      {"measurement": "Emax", "setting": "[3]; read-out: 5-HT1A agonist mode E max % [10^-5 M]", "result": 15, "unit": "%"},
      {"measurement": "Emax", "setting": "[3]; read-out: 5-HT1A antagonist mode E max %", "result": 16, "unit": "%"},
      {"measurement": "increase in intracellular O2•-", "setting": "[4]; all concentrations and times", "result": "no significant increase"},
      {"measurement": "decrease of O2•- level", "setting": "[4]; conc. = IC50, 24 h", "result": 26, "unit": "%"},
      {"measurement": "time spent in open arms", "setting": "[5]; 0.1 and 1 mg/kg i.p.", "result": "prolonged time spent in open arms; also recorded: significant prolongation of time spent in the open arms"},
      {"measurement": "number of open arm entries", "setting": "[5]; 1 and 10 mg/kg i.p.", "result": "increased the number of open arm entries; also recorded: increased number of entries into the open arms"},
      {"measurement": "locomotor activity", "setting": "[6]", "result": "None of these doses significantly affected the locomotor activity"},
      {"measurement": "Melting temperature (Tm) of BuChE", "setting": "[7]", "result": "increased Tm of BuChE"}
    ]}
  ]
}
